From ChEMBL document CHEMBL1201862, “PubChem BioAssay data set” (2004)
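Where inhibition never reached the appropriate level, the endpoint shown equals the highest concentration tested. Otherwise, values were interpolated linearly from a five-concentration, 48-hour dose response in 96-well plates. GI50: concentration for 50% inhibition of growth.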 Active and inactive are the calls of the source. No stated cut-off is given here; in the data, active = GI50 up to about 1.1 µM and inactive = higher.

Assays:
Test in all cases: growth of human tumour cells (NCI), 48 h
A498 = test system: A498
HOP-18 = test system: HOP-18
LOX IMVI = test system: LOX IMVI
NCI-H226 = test system: NCI-H226
OVCAR-8 = test system: OVCAR-8
SK-MEL-28 = test system: SK-MEL-28
TK-10 = test system: TK-10

Measured: GI50

O=S(=O)(CF)OCCCCOS(=O)(=O)CF
inactive: A498 > 100 µM | HOP-18 > 100 µM | LOX IMVI 97.1 µM | NCI-H226 > 100 µM | OVCAR-8 > 100 µM | SK-MEL-28 > 100 µM | TK-10 > 100 µM
